Read-outs that look alike come from different tables or passages of the source.
Key:
[1] = system: LmjF.33.2570 (metallo-peptidase, Clan MF, Family M17); assay: Isothermal TPP (iTPP) thermal stabilization, LmjF.33.2570; assay type: binding, Leishmania major; conditions: L. major promastigote lysate, 47 °C, compound at 10× EC50 vs DMSO
Method: (§1) Cell lysates were obtained as detailed above. Isothermal TPP assays were performed as previously described[29] but here lysates were incubated at two temperatures: 28 and 47 °C. The first temperature (28 °C) acts as a control temperature at which the protein levels are not altered by the presence of the test compound. The second temperature (47 °C) is the Leishmania spp. median Tm (melting temperature or temperature 50%) according to our interim data. […] These samples were aliquoted and submitted to a temperature shock at the designated temperature for 3 min, then 3 min at room temperature, and finally 3 min on ice. The soluble part was isolated by ultracentrifugation (100,000g, 20 min, 4 °C).
(§2) All aspects of sample processing, TMT-labeling, fractionation by HPLC into 10 fractions, LC-MS/MS, and protein identification and quantitation were described previously.[28],[68] Proteins with less than three peptides and those with increased stability at 28 °C were disregarded.
(§3) Proteins were identified by searching the MS and MS/MS data for the peptides against L. major strain Friedlin (TriTryp version 61, tritrypdb.org) using MaxQuant (http://maxquant.org/, version 2.1.4.0). All proteomics data sets have been deposited to the ProteomeXchange Consortium via the PRIDE[69] partner repository with the identifier PXD00000. Data were analyzed with Perseus v 1.6.15.[70] The reporter intensities of each protein were extracted and normalized to the control temperature reporter intensity (28 °C), then these normalized values were used to calculate the log2 transformed fold-changes (FC) of […] samples. Proteins stabilized (log2 FC > 1 in both replicates) were selected as putative hits.

[2] = system: LmjF.35.1670 (60S ribosomal protein L26, putative); assay: Isothermal TPP (iTPP) thermal stabilization, LmjF.35.1670; assay type: binding, Leishmania major; conditions: L. major promastigote lysate, 47 °C, compound at 10× EC50 vs DMSO
Method: as §1, §2, §3

[3] = system: LmLAP-overexpressing L. major promastigotes; assay: Drug sensitivity assay (resazurin), LmLAP-overexpressing L. major promastigotes; assay type: cell-based; conditions: Leishmania major
Method: The basic L. major cytosolic leucyl aminopeptidase gene (LmjF.23.0950) was synthesized (GeneArt, Invitrogen) and cloned into the overexpression vector pIRT1_SAT by using BglII restriction sites. The pIRT1_SAT_LmLAP construct was sequenced to confirm correct sequence. Mid log phase L. major cells (1 × 10^7 cells) were transfected with 10 μg of heat-sterilized DNA using the Human T-Cell Nucleofector kit and AMAXA Nucleofector electroporator (program V-033). After a 24 h recovery period, nourseothricin was added to cultures to a final concentration of 100 μg/mL.
L. major promastigotes were seeded in 96-well plates at 5 × 10^4/mL, exposed to 2-fold serial dilutions of test compounds, and incubated at 28 °C for 72 h. Resazurin was, then, added to each well to a final concentration of 50 μM, and fluorescence was measured after 2–3 h (excitation of 528 nm and emission of 590 nm). The EC50 was calculated by processing the collected data by GRAFIT (version 5.0.4, Erithacus Software) and fitting them to the following two-parameter equation: [drawing 6] 6 where [I] is the inhibitor concentration, and m is the slope. Experiments were performed on at least three independent biological replicates. Data are presented as the weighted mean ± standard deviation.

rLmLAP = rLmLAP (Leishmania major, UniProt Q7KF27); assay: Mode of inhibition studies for rLmLAP (Leu-pNA, Lineweaver-Burk); assay type: biochemical; conditions: for Modality of rLmLAP inhibition: Lineweaver-Burk, 0, 15, 30, 60 μM inhibitor, L-Leu-pNA 0.59-300 μM
rLmLAP, sequence (Q7KF27 entry or part of it): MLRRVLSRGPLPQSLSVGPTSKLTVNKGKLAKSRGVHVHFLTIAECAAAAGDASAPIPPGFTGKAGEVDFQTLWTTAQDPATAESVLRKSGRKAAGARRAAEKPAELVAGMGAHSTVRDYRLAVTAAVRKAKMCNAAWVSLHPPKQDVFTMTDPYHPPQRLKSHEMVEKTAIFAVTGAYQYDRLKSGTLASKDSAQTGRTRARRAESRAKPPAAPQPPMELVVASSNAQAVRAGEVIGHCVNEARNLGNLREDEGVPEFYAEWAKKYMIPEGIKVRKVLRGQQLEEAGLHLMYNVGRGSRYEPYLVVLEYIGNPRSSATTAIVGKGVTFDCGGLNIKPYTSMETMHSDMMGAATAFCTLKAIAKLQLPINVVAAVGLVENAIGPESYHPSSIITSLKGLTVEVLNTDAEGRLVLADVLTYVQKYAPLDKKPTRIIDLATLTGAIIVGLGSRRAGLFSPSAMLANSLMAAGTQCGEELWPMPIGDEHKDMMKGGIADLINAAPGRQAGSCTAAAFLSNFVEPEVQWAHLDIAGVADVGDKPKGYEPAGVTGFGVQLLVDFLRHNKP
Method: The aminopeptidase enzymatic activity was determined by a continuous kinetic method.[26] The reaction was performed in 50 mM sodium phosphate, pH 7.0, in the presence of 13.9 nM rLmLAP (which is within the linear range of the v0 vs. enzyme concentration relationship) and 30 μM (1 appKM; 23) of the chromogenic substrate L-Leu-p-nitroanilide (Leu-pNA; 2 μL, in DMSO). The reaction was carried out at 25 °C in 96-well microplates (200 μL final volume), in a microplate spectrophotometer (FLUOstar OPTIMA, Germany). The increase of the absorbance at 405 nm (due to the release of the pNA chromogen) was recorded every 15 s for 5 min. Only the linear ranges of the typical curves, corresponding to substrate consumptions lower than 5% (v0 conditions) were used to measure the reaction velocity. Slopes with determination coefficients (R^2) < 0.98 were not considered for linear fits.
For the determination of the inhibition mode, inhibitors were used at 0, 15, 30, and 60 μM. For each inhibitor concentration, the substrate Leu-pNA was added at different concentrations (0.59–300 μM). Experimental data were transformed, and the Lineweaver–Burk double reciprocal plots were constructed. The following equation was used: [drawing 3] 3 where appvmax is the apparent maximal rate of the reaction, and [S]0 is the initial substrate concentration.[26] The inhibition type was determined graphically from the lines of the double reciprocal plots.[26]

[4] = system: L. donovani intracellular amastigotes; assay: Leishmania donovani intracellular (intramacrophage) assay, single concentration; assay type: cell-based; conditions: 96 h, intracellular amastigotes in macrophages, Hoechst imaging; for Inhibition of L. donovani proliferation (%): 50 μM; for inhibition at 50 µM: Leishmania donovani, Macrophage, read-out: Inhibition of L. donovani proliferation (%)
Method: The effect of the compounds selected as inhibitors of rLmLAP on the proliferation of L. donovani amastigotes was evaluated at a concentration of 50 μM. Macrophage cultures (ECACC, catalog number: 88081201) were used as host cells. Parasites were incubated with 4.27× 10^7 macrophages, at a multiplicity of infection (MOI) of 5, at 37 °C with 5% CO2, overnight in DMEM medium supplemented with 4.5 g/L glucose and glutamine and 10% FBS, in a Millicell HY T-600 three-layer culture flask (Merck Millipore, Solna, Sweden). […] Macrophages were incubated for another 24 h in the above conditions with 133 μL of fresh DMEM medium prewarmed at 37 °C and supplemented with 10% FBS to obtain a high count of intracellular amastigotes.
Forty-two hours after macrophage infection, compounds (50 μM, 250 nL in DMSO) were dispensed using LabCyte ECHO into each well of 384-well dark flat bottom plates (Corning, New York, USA). The plates were incubated at 37 °C, 5% CO2, for 4 h (without compounds, with DMSO, to determine the initial level of infection) and for 96 h (with and without compounds).

[5] = 72 h, read-out: EC50 (weighted mean), LmLAP-overexpressing (LAP-OE) L. major promastigotes
[6] = read-out: EC50 (LAP-OE), representative curve

SMILES | Enrichment (log2) replica A, LmjF.33.2570 [1] [log2] | Enrichment (log2) replica B, LmjF.33.2570 [1] [log2] | Enrichment (log2) replica A, LmjF.35.1670 [2] [log2] | Enrichment (log2) replica B, LmjF.35.1670 [2] [log2] | EC50 [3, 5] [µM] | EC50 [3, 6] [µM] | Modality of rLmLAP inhibition (rLmLAP) | Inhibition of L. donovani proliferation (%) [4] [%] | inhibition at 50 µM [4] [%] | α (noncompetitive inhibition mechanism) (rLmLAP; α > 1: preferential binding to free enzyme)
O=C(c1cccs1)N(CCCn1ccnc1)c1nc2ccccc2s1 [DDD00097924] | 1.97 | 1.76 | 1.71 | 1.97 | 11 ± 1 | 7.3 ± 1.4 | competitive mode inhibition | 77.8 ± 3.1 | 78 | –
COc1ccc(Cc2c(N)nc(-c3ccccn3)nc2N)cc1 [DDD00057570] | 1.38 | 1.17 | 1.36 | 1.64 | 7 ± 1 | 6.9 ± 1 | noncompetitive inhibitor | 98.4 ± 2.9 | 98 ± 2.9 | > 1

From publication PMC11184559, “Identification and Validation of Compounds Targeting Leishmania major Leucyl-Aminopeptidase M17” (ACS Infectious Diseases, 2024)
